Experimental data published in patent US6392098B1, “Conformationally restricted polyamines” (Wisconsin Alumni Research Foundation, priority 1997, dated 2002).
pIC50: −log10 of the molar value. Counter-ions that a name gives are not always drawn.

How the values were obtained:
[1] = system: brain cancer cells U251MG-NCI; experiment: Growth of U251MG-NCI cells at fixed drug concentration (viable cells over days); assay type: cell-based, human
Method: FIGS. 7 and 8 depict the effect of fixed doses of 10 μM and 40 μM of the subject compounds, respectively, on the growth of the human brain cancer cell line U251MG-NCI. Here, the X-axis represents time in days, and the Y-axis represents the total number of viable cells.
Human breast cancer cell line MCF7 was grown in Richter's Improved Modified Eagle's Medium supplemented with 10% fetal bovine serum (FBS) and 2.2 g/L sodium bicarbonate. Human brain cancer cell line U251MG-NCI was grown in Dulbecco's Modified Eagle's Medium supplemented with 10% FBS. Human lung cancer cell line A549 was grown in Ham's F-12K medium (Fisher Scientific, Itasca, Ill.), supplemented with 10% FBS and 2 mM L-glutamine. Human colon cancer cell line HT29 was cultured in McCoy's 5A medium (Gibco, BRL, Gaithersburg, Md.), supplemented with 10% FBS. Human prostate cancer cell line PC3 was grown in Dulbecco's Modified Eagles Medium supplemented with 5% FBS. The A549 and MCF7 cell lines were cultured in 100 units/mL penicillin and 100 μg/mL streptomycin. HT29 and U251MG cell lines were grown in 50 μg/mL gentamycin. PC3 cell lines were maintained in 1% antibiotic-antimycotic solution (Sigma, St. Louis, Mo.). […]
Here, the above-identified compounds were administered in a 10 μM dose to cultures of the human brain cancer cell line U251MG-NCI and evaluated according to the standard protocol described above. […]

[2] = system: human brain cancer cells U251 MG; experiment: MTT cell survival assay, U251MG NCI; assay type: cell-based; conditions: six days after drug treatment, read-out: Cytotoxic Activity Human Tumor Cell Lines ID50 U251MG NCl
Method: Human breast cancer cell line MCF7 was grown in Richter's Improved Modified Eagle's Medium supplemented with 10% fetal bovine serum (FBS) and 2.2 g/L sodium bicarbonate. Human brain cancer cell line U251MG-NCI was grown in Dulbecco's Modified Eagle's Medium supplemented with 10% FBS. […] Human prostate cancer cell line PC3 was grown in Dulbecco's Modified Eagles Medium supplemented with 5% FBS. […] The cell cultures were maintained at 37° C. in 5% CO2/95% humidified air.
Here, a conventional MTT assay was used to evaluate percent cell survival. Exponentially growing monolayer cells were plated in 96-well plates at a density of 500 cells per well and allowed to grow for 24 hours. Serial dilutions of the drugs were added to the wells. Six days after drug treatment, 25 μl of MTT solution (5 mg/ml) was added to each well and incubated for 4 hours at 37° C. Then 100 μl of lysis buffer (20% sodium dodecyl sulfate, 50% DMF, and 0.8% acetic acid, pH 4.7) was added to each well and incubated for an additional 22 hours. A microplate reader (“EMAX”-brand, Molecular Devices, Sunnyvale, Calif.) set at 570 nm was used to determine the optical density of the cultures. Results are expressed as a ratio of the optical density in drug-treated wells to the optical density in wells treated with vehicle only.
The ID50 is the drug concentration that killed 50% of the cultured cells.

| SMILES | melting point | also measured |
| --- | --- | --- |
| CCNCCCNC1CC1NCCCNCC (centres unmarked) [SL-11027] | 240 °C (dec.) | effect on growth of U251MG-NCI cells ([1]; 10 μM concentration): marked inhibition of cell growth |
| CCNCCCNC1CCC1NCCCNCC (centres unmarked) [SL-11034] | – | effect on growth of U251MG-NCI cells ([1]; 40 μM concentration): marked inhibition of cell growth |
| CCNCCCNCC1CC1CNCCCNCC (stereo not drawn) [SL-11038, N-Ethyl-N′-(2-(3′-ethylamino-propylaminomethyl)-trans-cyclopropylmethyl)-propane-1,3-diamine tetrahydrochloride] | – | pIC50 [2]: 7.00 |

Further lines, with some results ahead:

| melting point | SMILES | also measured |
| --- | --- | --- |
| 240 °C (dec.) | CCNCCCNC[C@@H]1C[C@@H]1CNCCCNCC (as salt: hydrochloride) [SL-11037, N-Ethyl-N′-(2-(3′-ethylamino-propylaminomethyl)-cis-cyclopropylmethyl)-propane 1,3-diamine tetrahydrochloride] | – |
| 270 °C (dec.) | CCNCCCNCC1CC1CNCCCNCC (stereo not drawn) (as salt: hydrochloride) [SL-11038, N-Ethyl-N′-(2-(3′-ethylamino-propylaminomethyl)-trans-cyclopropylmethyl)-propane-1,3-diamine tetrahydrochloride] | – |
| 92 to 93 °C | CCNCCCNC[C@H]1CC[C@H]1CNCCCNCC (as salt: hydrochloride) [SL-11043, N-Ethyl-N′-(2-(3′-ethylamino-propylaminomethyl)-cis-cyclobutylmethyl)-propane1,3-diamine tetrahydrochloride] | – |
| 77 to 78 °C | CCNCCCNCC1CCC1CNCCCNCC (stereo not drawn) (as salt: hydrochloride) [SL-11044, N-Ethyl-N′-(2-(3′-ethylamino-propylaminomethyl)-trans-cyclobutylmethyl)-propane1,3-diamine tetrahydrochloride] | – |
